Residue numbers refer to the chain shown, from its start.
Key:
GK-W99R/W167F/W257F [1] = target: T1, GK-W99R/W167F/W257F (Homo sapiens, UniProt P35557, W167F/W257F/W99R); assay: Glucose binding to unbound GK-W99R/W167F/W257F
T1 construct: GST (cleaved yes); made in house; host or cells: Escherichia coli
T1 sequence (P35557 1-465 W99R/W167F/W257F): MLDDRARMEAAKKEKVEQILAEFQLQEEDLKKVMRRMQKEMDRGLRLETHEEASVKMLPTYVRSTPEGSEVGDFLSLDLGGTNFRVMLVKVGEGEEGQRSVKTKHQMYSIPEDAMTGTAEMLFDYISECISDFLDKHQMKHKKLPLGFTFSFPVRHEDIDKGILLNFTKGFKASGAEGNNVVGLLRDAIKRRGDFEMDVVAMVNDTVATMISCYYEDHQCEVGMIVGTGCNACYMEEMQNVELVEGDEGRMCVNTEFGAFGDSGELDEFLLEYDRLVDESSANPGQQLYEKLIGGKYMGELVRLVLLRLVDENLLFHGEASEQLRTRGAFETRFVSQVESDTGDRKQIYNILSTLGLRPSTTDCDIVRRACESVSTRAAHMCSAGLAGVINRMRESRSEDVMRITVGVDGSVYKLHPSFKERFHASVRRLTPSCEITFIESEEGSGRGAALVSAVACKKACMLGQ

[2] = target: T2, hGKRP (0.3 μM)–GK-W99R/W167F/W257F (1 μM) complex, GKRP-P446L (Homo sapiens, UniProt P35557+Q14397, P446L/W167F/W257F/W99R); assay: Ligand binding by / disassembly of GKRP-P446L–GK-W99R/W167F/W257F complex by TF of hGKRP; settings: ligand titration of 3:1 GK–GKRP-P446L complex, 20°C
T2 construct: FLAG; GST (cleaved yes); made in house; host or cells: Escherichia coli
T2 sequence (Q14397 1-625 P446L): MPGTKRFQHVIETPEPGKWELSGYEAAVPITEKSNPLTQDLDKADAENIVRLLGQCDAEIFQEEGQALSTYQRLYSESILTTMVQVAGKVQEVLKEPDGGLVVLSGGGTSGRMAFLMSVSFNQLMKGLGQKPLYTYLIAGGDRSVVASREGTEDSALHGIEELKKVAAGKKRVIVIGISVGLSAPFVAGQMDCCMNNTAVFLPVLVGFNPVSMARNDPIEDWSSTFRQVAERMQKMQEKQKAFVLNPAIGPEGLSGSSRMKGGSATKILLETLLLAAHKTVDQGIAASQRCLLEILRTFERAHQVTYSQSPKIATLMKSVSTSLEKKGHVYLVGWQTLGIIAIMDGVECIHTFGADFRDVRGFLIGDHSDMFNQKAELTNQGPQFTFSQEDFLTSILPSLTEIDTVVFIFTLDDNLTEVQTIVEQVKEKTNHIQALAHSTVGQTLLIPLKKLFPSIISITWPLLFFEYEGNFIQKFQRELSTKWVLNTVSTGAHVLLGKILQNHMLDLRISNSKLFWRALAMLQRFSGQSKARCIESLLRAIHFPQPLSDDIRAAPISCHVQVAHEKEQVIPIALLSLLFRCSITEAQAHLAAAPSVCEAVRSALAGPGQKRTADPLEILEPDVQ
T2 sequence (P35557 1-465 W99R/W167F/W257F): T1 sequence (P35557 1-465 W99R/W167F/W257F)
Description: Spectra were measured with a Fluorolog-3-21 Jobin-Yvon Spex Instrument SA equipped with a 450 W Xenon lamp for excitation and a cooled R2658P Hamamatsu photomultiplier tube for detection. For all measurements, 90° geometry was employed and 295 nm excitation wavelengths were used to observe fluorescence emission in the 300–500 nm range. For TF, spectra slit width was set to provide a bandpath of 3 nm for excitation and 3 nm for emission. Spectra were corrected for instrumental response using Spex instrument software. A thermostatically controlled cell holder maintained sample temperature at 20°C. A thermocoupler was used to measure sample temperature. The buffer used contained 20 mM phosphate, 50 mM KCl, 1 mM EDTA and 1 mM DTT (pH 7.2).
Fluorescence data were obtained via the stepwise addition of the appropriate amount of non-fluorescent GK-W99R/W167F/W257F to GKRP in a fluorescence cuvette. […] The change in GKRP protein fluorescence during titration was also measured using time-dependent scans. A manual procedure was used such that a typical titration with 10–12 additions required 20–25 min to perform. The same buffer as described above was routinely used unless stated otherwise. The bandpath was 0.5 nm at 295 nm for excitation and 12 nm at 340 nm for emission. […] For some graphical presentations the linear form of the Hill equation was used: log[F/(Fsat−F)]=H log x−H log KD [46].

GK-W99R/W167F/W257F [3] = target: T1, GK-W99R/W167F/W257F; parameters: method as in ref 4 (a number printed in a supplementary file, which may have a reference list of its own: not looked up in the article's list); settings: cited from earlier work
GK (glucokinase) = settings: cited from earlier work
GKRP-WT = target: T3, GKRP-WT (Homo sapiens, UniProt Q14397); assay: Ligand binding to free GKRP-WT measured by TF of GKRP; settings: ligand alone
T3 construct: FLAG; made in house; host or cells: Escherichia coli
T3 sequence (Q14397 1-625): T2 sequence (Q14397 1-625 P446L) with L446P

OC[C@H]1OC(O)[C@H](O)[C@@H](O)[C@@H]1O (stereo partly drawn) [D-Glucose, D-glucose]
Kd (GK-W99R/W167F/W257F [1]): 5 mM | H [2]: 1 | H (glucose) (GK-W99R/W167F/W257F [3]): 1.45 | glucose S0.5 (GK-W99R/W167F/W257F [3]): 4.8 mM | Hill coefficient of GK with respect to glucose (GK (glucokinase)): approximately 1.7 | affinity of GK for glucose (GK (glucokinase)): approximately 7.5 mM | ΔF (relative fluorescence change at 340 nm) (GKRP-WT; 0.3 μM GKRP-WT, 20°C): 0 | effect on the TF signal of GKRP-WT (GKRP-WT): no effect
